Experimental data as given in patent US20250136607A1 (REGOR PHARMACEUTICALS, INC., priority 2021, published 2025).
Several values for one entry are separate records, joined by “and”; a condition that tells them apart may be missing. Equal entries are not always repeated. Where two headings read alike, the source gives them in different places.

Biological target: Protein arginine deiminase 4 (PAD4) (Homo sapiens, UniProt Q9UM07)
Assay: PAD4 ammonia release assay
Format: biochemical
Experimental: 1) Compound preparation: The compounds were diluted to 80× final concentrations. 2) The compounds were transferred to a 384-well assay plate by Tecan. DMSO: 1.25%. 3) Preparation of 1×Assay buffer: 100 mM HEPES, PH=8.0, 2 mM CaCl2, 50 mM NaCl, 0.1 mM TCEP, 0.6 mg/ml BSA. 4) 2× enzyme working solution (PAD4:20 nM) was prepared with assay buffer, and 10 μL of the obtained working solution were added to the 384-well assay plates. 5) The plate was centrifuged at 1000 rpm for 1 min. 6) After the centrifuge, the plate was incubated at RT for 15 min. 7) 2×BAEE substrate mix (600 μM) was prepared with assay buffer and 10 μL of the obtained substrate mix were added to each well. 8) The plate was centrifuged at 1000 rpm for 1 min and then incubated at RT for 60 min. 9) 1.5× detection mix (DTT:4 mM, OPA:3 mM, EDTA: 30 mM) was prepared, and 10 μL of the mix were added to the plate. 10) The plate was centrifuged at 1000 rpm for 1 min and then incubated at RT for 120 min. 11) The 384-well plates were placed into the Envision (PerkinElmer) and the assay data were collected.
The percent (%) inhibition at each concentration of compound was calculated based on and relative to the signal in the HPE (50 μM ref. compound) and ZPE (1.25% DMSO) wells included within each assay plate. The HPE worked as 100% inhibition, and the ZPE worked as 0% inhibition. The concentrations and % inhibition values for tested compounds were plotted and the concentration of compound required for 50% inhibition (IC50) was determined with a Four-parameter logistic dose response equation. The endpoint value (IC50) for the reference compound was evaluated in each experiment as a quality control measure. If the endpoint value is within 3-fold of the expected value, then the experiment quality is deemed as acceptable. The results are provided in Table 1 below. ≤0.1 μM=“++++”; >0.1 and ≤0.5 μM=“+++”; >0.5 and ≤5.0 μM=“++”; >5.0 μM=“+”. “−”=not available.

[1] = PAD4 ammonia release assay, BAEE substrate, 60 min at RT, read-out: Average IC50 Abs
[2] = PAD4 activity comparison, read-out: PAD4 Ammonia assay IC50

Chain of Protein arginine deiminase 4 (PAD4) (Q9UM07 whole entry): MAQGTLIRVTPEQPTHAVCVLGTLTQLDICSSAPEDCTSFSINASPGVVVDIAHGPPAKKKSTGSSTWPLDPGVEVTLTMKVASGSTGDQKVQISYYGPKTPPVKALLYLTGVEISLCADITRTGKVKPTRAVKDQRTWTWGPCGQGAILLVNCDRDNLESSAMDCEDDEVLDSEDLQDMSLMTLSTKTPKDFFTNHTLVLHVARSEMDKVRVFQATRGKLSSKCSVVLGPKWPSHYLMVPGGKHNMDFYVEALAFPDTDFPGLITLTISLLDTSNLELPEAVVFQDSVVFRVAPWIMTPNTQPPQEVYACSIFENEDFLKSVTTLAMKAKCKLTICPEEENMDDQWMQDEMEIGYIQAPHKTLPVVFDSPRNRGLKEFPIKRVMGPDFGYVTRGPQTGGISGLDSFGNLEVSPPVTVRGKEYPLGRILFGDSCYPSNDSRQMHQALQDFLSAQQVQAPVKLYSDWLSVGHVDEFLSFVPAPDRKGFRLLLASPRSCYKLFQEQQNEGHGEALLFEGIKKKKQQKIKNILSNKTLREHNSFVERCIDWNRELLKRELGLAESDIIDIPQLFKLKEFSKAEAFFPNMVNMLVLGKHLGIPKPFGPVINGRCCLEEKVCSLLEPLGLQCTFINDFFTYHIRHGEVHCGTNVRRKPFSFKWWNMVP

Row | Structure (SMILES) | IC50 [1] [µM] | IC50 [2]
1 | Cn1c(-c2cc3c(C#N)ccc4c3n2[C@H](C2CC2)CN4)nc2cc(C(=O)N3C[C@H]4CC[C@@H]3[C@@H]4N)cc(F)c21 [Example 119, (R)-5-(5-((1R,4R,7R)-7-amino-2-azabicyclo[2.2.1]heptane-2-carbonyl)-7-fluoro-1-methyl-1H-benzo[d]imidazol-2-yl)-3-cyclopropyl-2,3-dihydro-1H-pyrrolo[1,2,3-de]quinoxaline-7-carbonitrile] | > 5 | 
2 | Cn1c(-c2cc3cc(C#N)cc4c3n2[C@H](C2CC2)CN4)nc2cc(C(=O)N3C[C@H]4CC[C@@H]3[C@@H]4N)cc(F)c21 [Example 117, (R)-5-(5-((1R,4R,7R)-7-amino-2-azabicyclo[2.2.1]heptane-2-carbonyl)-7-fluoro-1-methyl-1H-benzo[d]imidazol-2-yl)-3-cyclopropyl-2,3-dihydro-1H-pyrrolo[1,2,3-de]quinoxaline-8-carbonitrile] | > 5 | 
3 | Cn1c(-c2cc3c(C#N)ccc4c3n2[C@@H](C2CC2)CN4)nc2cc(C(=O)N3C[C@H]4CC[C@@H]3[C@@H]4N)cc(F)c21 [Example 120, (S)-5-(5-((1R,4R,7R)-7-amino-2-azabicyclo[2.2.1]heptane-2-carbonyl)-7-fluoro-1-methyl-1H-benzo[d]imidazol-2-yl)-3-cyclopropyl-2,3-dihydro-1H-pyrrolo[1,2,3-de]quinoxaline-7-carbonitrile] | > 5 | 
4 | CC1COc2cccc3cc(-c4nc5cc(C(=O)N6CCC[C@@H](N)C6)ccc5n4C)n1c23 (some centres unmarked) [B, reference compound] |  | 7.28 µM
5 | COc1cc(C(=O)N2CCC[C@@H](N)C2)cc2nc(-c3cc4cccc5c4n3CCN5CCCNC(=O)NC3CC3)n(C)c12 [Example 5, (R)-1-(3-(5-(5-(3-aminopiperidine-1-carbonyl)-7-methoxy-1-methyl-1H-benzo[d]imidazol-2-yl)-2,3-dihydro-1H-pyrrolo[1,2,3-de]quinoxalin-1-yl)propyl)-3-cyclopropylurea] | 0.5 to 5 | 
6 | COc1cc(C(=O)N2C[C@H](N)C[C@@H](F)C2)cc2nc(-c3cc4cccc5c4n3CCN5CCOCCO)n(C)c12 [Example 22, ((3R,5R)-3-amino-5-fluoropiperidin-1-yl)(2-(1-(2-(2-hydroxyethoxy)ethyl)-2,3-dihydro-1H-pyrrolo[1,2,3-de]quinoxalin-5-yl)-7-methoxy-1-methyl-1H-benzo[d]imidazol-5-yl)methanone] | 0.1 to 0.5 | 
7 | COc1cc(C(=O)N2C[C@H](N)C[C@@H](F)C2)cc2nc(-c3cc4cccc5c4n3CCN5C(=O)CO)n(C)c12 [Example 28, 1-(5-(5-((3R,5R)-3-amino-5-fluoropiperidine-1-carbonyl)-7-methoxy-1-methyl-1H-benzo[d]imidazol-2-yl)-2,3-dihydro-1H-pyrrolo[1,2,3-de]quinoxalin-1-yl)-2-hydroxyethan-1-one] | 0.5 to 5 | 
8 | COc1cc(C(=O)N2CC3CNC3C2)cc2nc(-c3cc4cccc5c4n3CCN5CCCO)n(CC3CC3)c12 (centres unmarked) [Example 53, (3,6-diazabicyclo[3.2.0]heptan-3-yl)(1-(cyclopropylmethyl)-2-(1-(3-hydroxypropyl)-2,3-dihydro-1H-pyrrolo[1,2,3-de]quinoxalin-5-yl)-7-methoxy-1H-benzo[d]imidazol-5-yl)methanone] | > 5 | 
9 | CCn1cc(Cn2c(-c3cc4cccc5c4n3CCN5CCO)nc3cc(C(=O)N4C[C@H](N)C[C@@H](F)C4)cc(F)c32)cn1 [Example 39, ((3R,5R)-3-amino-5-fluoropiperidin-1-yl)(1-((1-ethyl-1H-pyrazol-4-yl)methyl)-7-fluoro-2-(1-(2-hydroxyethyl)-2,3-dihydro-1H-pyrrolo[1,2,3-de]quinoxalin-5-yl)-1H-benzo[d]imidazol-5-yl)methanone] | 0.1 to 0.5 | 
10 | Cn1c(-c2cc3ccc4c(c3n2CC2CC2)CCCN4)nc2cc(C(=O)N3C[C@H]4CC[C@@H]3[C@@H]4N)cc(F)c21 [Example 163, ((1R,4R,7R)-7-amino-2-azabicyclo[2.2.1]heptan-2-yl)(2-(1-(cyclopropylmethyl)-6,7,8,9-tetrahydro-1H-pyrrolo[2,3-f]quinolin-2-yl)-7-fluoro-1-methyl-1H-benzo[d]imidazol-5-yl)methanone] | 0.1 to 0.5 | 
11 | COc1cc(-n2cc3c(n2)CCC(N)C3)cc2nc(-c3cc4cccc5c4n3CCN5CCCO)n(C)c12 (centres unmarked) [Example 62, 3-(5-(5-(5-amino-4,5,6,7-tetrahydro-2H-indazol-2-yl)-7-methoxy-1-methyl-1H-benzo[d]imidazol-2-yl)-2,3-dihydro-1H-pyrrolo[1,2,3-de]quinoxalin-1-yl)propan-1-ol] | > 5 | 
12 | Cn1c(-c2cc3cccc4c3n2CCO4)nc2cc(C(=O)N3CCC[C@@H](N)C3)ccc21 [A, reference compound] |  | ~15.2 µM and 15.2 µM
13 | CCC1CNc2nccc3cc(-c4nc5cc(C(=O)N6C[C@H](N)C[C@@H](F)C6)cc(F)c5n4C)n1c23 (stereo partly drawn) [Example 136, ((3R,5R)-3-amino-5-fluoropiperidin-1-yl)(2-(3-ethyl-4,5-dihydro-3H-2a, 5,6-triazaacenaphthylen-2-yl)-7-fluoro-1-methyl-1H-benzo[d]imidazol-5-yl)methanone] | > 5 | 
14 | CCC1C(=O)Nc2c(Cl)ccc3cc(-c4nc5cc(C(=O)N6C[C@H]7CC[C@@H]6[C@@H]7N)cc(F)c5n4C)n1c23 (stereo partly drawn) [Example 124, 5-(5-((1R,4R,7R)-7-amino-2-azabicyclo[2.2.1]heptane-2-carbonyl)-7-fluoro-1-methyl-1H-benzo[d]imidazol-2-yl)-9-chloro-3-ethyl-1H-pyrrolo[1,2,3-de]quinoxalin-2(3H)-one] | 0.5 to 5 | 
15 | CC[C@@H]1CN(CCCO)c2cccc3cc(-c4nc5cc(C(=O)N6C[C@H]7CC[C@@H]6[C@@H]7N)cc(F)c5n4CC)n1c23 [Example 97, ((1R,4R,7R)-7-amino-2-azabicyclo[2.2.1]heptan-2-yl)(1-ethyl-2-((R)-3-ethyl-1-(3-hydroxypropyl)-2,3-dihydro-1H-pyrrolo[1,2,3-de]quinoxalin-5-yl)-7-fluoro-1H-benzo[d]imidazol-5-yl)methanone] | > 5 | 
16 | COc1cc(C(=O)N2CCC[C@@H](N)C2)cc2nc(-c3cc4cccc5c4n3CC(=O)N5)n(C)c12 [Example 9, (R)-5-(5-(3-aminopiperidine-1-carbonyl)-7-methoxy-1-methyl-1H-benzo[d]imidazol-2-yl)-1H-pyrrolo[1,2,3-de]quinoxalin-2(3H)-one] | > 5 | 
17 | COc1cc(C(=O)N2C[C@H](N)C[C@@H](F)C2)cc2nc(-c3cc4cccc5c4n3CCN5C(=O)CC#N)n(C)c12 [Example 30, 3-(5-(5-((3R,5R)-3-amino-5-fluoropiperidine-1-carbonyl)-7-methoxy-1-methyl-1H-benzo[d]imidazol-2-yl)-2,3-dihydro-1H-pyrrolo[1,2,3-de]quinoxalin-1-yl)-3-oxopropanenitrile] | > 5 | 
18 | CCC1CN(CC(C)(C)CO)c2cccc3cc(-c4nc5cc(C(=O)N6C[C@H]7CC[C@@H]6[C@@H]7N)cc(F)c5n4C)n1c23 (stereo partly drawn) [Example 89, ((1R,4R,7R)-7-amino-2-azabicyclo[2.2.1]heptan-2-yl)(2-(3-ethyl-1-(3-hydroxy-2,2-dimethylpropyl)-2,3-dihydro-1H-pyrrolo[1,2,3-de]quinoxalin-5-yl)-7-fluoro-1-methyl-1H-benzo[d]imidazol-5-yl)methanone] | 0.1 to 0.5 | 
19 | CC1CNc2cccc3cc(-c4nc5cc(C(=O)N6C[C@H]7CC[C@@H]6[C@@H]7N)ccc5n4C)n1c23 (stereo partly drawn) [Example 169, ((1R,4R,7R)-7-amino-2-azabicyclo[2.2.1]heptan-2-yl)(1-methyl-2-(3-methyl-2,3-dihydro-1H-pyrrolo[1,2,3-de]quinoxalin-5-yl)-1H-benzo[d]imidazol-5-yl)methanone] | 0.5 to 5 | 0.55 µM
20 | CCC1CNc2c(C)ccc3cc(-c4nc5cc(C(=O)N6C[C@H]7CC[C@@H]6[C@@H]7N)cc(F)c5n4C)n1c23 (stereo partly drawn) [Example 132, ((1R,4R,7R)-7-amino-2-azabicyclo[2.2.1]heptan-2-yl)(2-(3-ethyl-9-methyl-2,3-dihydro-1H-pyrrolo[1,2,3-de]quinoxalin-5-yl)-7-fluoro-1-methyl-1H-benzo[d]imidazol-5-yl)methanone] | 0.1 to 0.5 | 
21 | COc1cc(C(=O)N2CC3C(N)C3C2)cc2nc(-c3cc4cccc5c4n3CCN5CCCO)n(CC3CC3)c12 (centres unmarked) [Example 54, (6-amino-3-azabicyclo[3.1.0]hexan-3-yl)(1-(cyclopropylmethyl)-2-(1-(3-hydroxypropyl)-2,3-dihydro-1H-pyrrolo[1,2,3-de]quinoxalin-5-yl)-7-methoxy-1H-benzo[d]imidazol-5-yl)methanone] | > 5 | 
22 | Cn1c(-c2cc3ccc4c(Cl)c[nH]c4c3n2CC2CC2)nc2cc(C(=O)N3C[C@H]4CC[C@@H]3[C@@H]4N)cc(F)c21 [Example 149, ((1R,4R,7R)-7-amino-2-azabicyclo[2.2.1]heptan-2-yl)(2-(6-chloro-1-(cyclopropylmethyl)-1,8-dihydropyrrolo[3,2-g]indol-2-yl)-7-fluoro-1-methyl-1H-benzo[d]imidazol-5-yl)methanone] | 0.5 to 5 | 
